Test results: the NIST ThermoML archive (doi:10.1021/je060271a)
“And” between values parts separate entries of the source, which are not always exact repeats. Equal values may be shown once.

Settings: 343.16 K, Liquid, Vibrating tube method

CCCCCC(=O)OCC(COC(=O)CCCCC)(COC(=O)CCCCC)COC(=O)CCCCC [pentaerythritol tetrahexanoate]
Settings | mass density
354.4 kPa | 957.4 kg/m3 and 957.3 kg/m3
355.3 kPa | 957.3 kg/m3
355.8 kPa | 957.3 kg/m3
356.3 kPa | 957.3 kg/m3
356.7 kPa | 957.4 kg/m3
357 kPa | 957.4 kg/m3
357.2 kPa | 957.4 kg/m3
357.5 kPa | 957.4 kg/m3
357.9 kPa | 957.4 kg/m3
358.6 kPa | 957.4 kg/m3
359.5 kPa | 957.4 kg/m3
360.3 kPa | 957.4 kg/m3
360.5 kPa | 957.3 kg/m3
360.7 kPa | 957.3 kg/m3
361.4 kPa | 957.3 kg/m3
361.6 kPa | 957.4 kg/m3
361.9 kPa | 957.3 kg/m3
362.3 kPa | 957.5 kg/m3
362.6 kPa | 957.5 kg/m3
362.9 kPa | 957.4 kg/m3
365.9 kPa | 957.3 kg/m3 and 957.4 kg/m3
366.4 kPa | 957.3 kg/m3
366.8 kPa | 957.4 kg/m3
367.3 kPa | 957.3 kg/m3
367.6 kPa | 957.3 kg/m3
368 kPa | 957.5 kg/m3
368.1 kPa | 957.3 kg/m3
368.5 kPa | 957.4 kg/m3
370.4 kPa | 957.4 kg/m3
370.8 kPa | 957.3 kg/m3
371.3 kPa | 957.5 kg/m3
371.6 kPa | 957.4 kg/m3
372 kPa | 957.4 kg/m3
372.3 kPa | 957.4 kg/m3
379.4 kPa | 957.5 kg/m3
379.8 kPa | 957.4 kg/m3
380.3 kPa | 957.4 kg/m3
405.3 kPa | 957.4 kg/m3
406 kPa | 957.4 kg/m3
406.2 kPa | 957.3 kg/m3
406.4 kPa | 957.4 kg/m3
406.9 kPa | 957.4 kg/m3
410.7 kPa | 957.3 kg/m3
411.1 kPa | 957.4 kg/m3
411.8 kPa | 957.4 kg/m3
412.5 kPa | 957.5 kg/m3
415.9 kPa | 957.4 kg/m3
416.3 kPa | 957.4 kg/m3
416.6 kPa | 957.3 kg/m3
417.3 kPa | 957.2 kg/m3
417.7 kPa | 957.3 kg/m3
421.8 kPa | 957.4 kg/m3
422.4 kPa | 957.5 kg/m3
422.9 kPa | 957.5 kg/m3
423.1 kPa | 957.4 kg/m3
495.2 kPa | 957.5 kg/m3
498.6 kPa | 957.4 kg/m3
501.8 kPa | 957.5 kg/m3
506.1 kPa | 957.5 kg/m3
509.6 kPa | 957.5 kg/m3
513.1 kPa | 957.4 kg/m3
517.4 kPa | 957.5 kg/m3
521.2 kPa | 957.5 kg/m3
541.9 kPa | 957.6 kg/m3
598.9 kPa | 957.5 kg/m3
1360.7 kPa | 958.2 kg/m3
1373.7 kPa | 958.2 kg/m3
1386.7 kPa | 958 kg/m3
1402 kPa | 958.1 kg/m3
1499.4 kPa | 958.2 kg/m3
1527.2 kPa | 958.3 kg/m3
1543.9 kPa | 958.2 kg/m3
1635.2 kPa | 958.4 kg/m3
1649.9 kPa | 958.4 kg/m3
1664.3 kPa | 958.4 kg/m3
1682.1 kPa | 958.4 kg/m3
2922.7 kPa | 959.2 kg/m3
2945.6 kPa | 959.4 kg/m3
3846.3 kPa | 960.1 kg/m3
3871.7 kPa | 960 kg/m3
3901.2 kPa | 960.1 kg/m3
3926.1 kPa | 960 kg/m3
3956.3 kPa | 960.1 kg/m3
3981.7 kPa | 960.2 kg/m3
9203.5 kPa | 964.1 kg/m3
9234 kPa | 964.1 kg/m3
9270 kPa | 964.2 kg/m3
9300.6 kPa | 964.1 kg/m3
9331.6 kPa | 964.1 kg/m3
9596.7 kPa | 964.4 kg/m3
9628.1 kPa | 964.4 kg/m3
9666.2 kPa | 964.4 kg/m3
9698 kPa | 964.4 kg/m3
9736.5 kPa | 964.4 kg/m3
9768.5 kPa | 964.5 kg/m3
9839 kPa | 964.5 kg/m3
9871.9 kPa | 964.6 kg/m3
9905.6 kPa | 964.5 kg/m3
9938.9 kPa | 964.7 kg/m3
9971.6 kPa | 964.5 kg/m3
10011 kPa | 964.7 kg/m3
10044 kPa | 964.7 kg/m3
10084 kPa | 964.7 kg/m3
10117 kPa | 964.9 kg/m3
10151 kPa | 964.7 kg/m3
10192 kPa | 965 kg/m3
10225 kPa | 964.9 kg/m3
10259 kPa | 964.9 kg/m3
10294 kPa | 964.9 kg/m3
10335 kPa | 964.8 kg/m3
10369 kPa | 965 kg/m3
10404 kPa | 965 kg/m3
10446 kPa | 965 kg/m3
10481 kPa | 964.9 kg/m3
10516 kPa | 964.9 kg/m3
10551 kPa | 965 kg/m3
10593 kPa | 965.2 kg/m3
10628 kPa | 965.1 kg/m3
10670 kPa | 965.1 kg/m3
10705 kPa | 965.2 kg/m3
10741 kPa | 965.2 kg/m3
10777 kPa | 965.2 kg/m3
10820 kPa | 965.2 kg/m3
10856 kPa | 965.5 kg/m3
10893 kPa | 965.4 kg/m3
10929 kPa | 965.3 kg/m3
10972 kPa | 965.3 kg/m3
12411 kPa | 966.4 kg/m3
12434 kPa | 966.4 kg/m3
12457 kPa | 966.5 kg/m3
12484 kPa | 966.4 kg/m3
12507 kPa | 966.5 kg/m3
12530 kPa | 966.5 kg/m3
12559 kPa | 966.6 kg/m3
12577 kPa | 966.5 kg/m3
12604 kPa | 966.5 kg/m3
12626 kPa | 966.5 kg/m3
12653 kPa | 966.7 kg/m3
12675 kPa | 966.5 kg/m3
12697 kPa | 966.5 kg/m3
12722 kPa | 966.6 kg/m3
12741 kPa | 966.6 kg/m3
12760 kPa | 966.7 kg/m3
12778 kPa | 966.8 kg/m3
12793 kPa | 966.6 kg/m3
